Calls of active or inactive are those of the source.
Experiments:
[1] = biological target: Glyceraldehyde-3-phosphate dehydrogenase (Homo sapiens, UniProt P04406)
Bcl-2-related protein A1 [2] = biological target: T1, Bcl-2-related protein A1 (Mus musculus, UniProt Q07440); assay: Bfl-1 binding inhibitors, SAR follow-up, biochemical, fluorescence polarization (AID 1070)
T1 sequence (Q07440 whole entry): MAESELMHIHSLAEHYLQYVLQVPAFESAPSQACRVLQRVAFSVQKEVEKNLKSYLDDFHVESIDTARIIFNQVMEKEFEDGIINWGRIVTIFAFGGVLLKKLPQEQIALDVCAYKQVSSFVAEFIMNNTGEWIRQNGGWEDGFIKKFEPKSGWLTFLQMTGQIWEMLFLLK

Bcl-2-related protein A1 [3] = biological target: T1, Bcl-2-related protein A1; assay: small-molecule antagonists of Bfl-1/BH3 interaction – biochemical, TR-FRET, mouse Bfl-1, confirmation (AID 621);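 also: TR-FRET binding of GST-Bfl-1 to FITC-labelled Bid peptide via terbium antibody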
[4] = microbe, parasite or virus in culture; assay type: functional; details: Mycobacterium tuberculosis
[5] = biological target: T2, Heat shock factor protein 1 (Mus musculus, UniProt P38532); assay: enhancement of HSF1-driven luciferase signal – cell-based, NIH3T3, luminescence, dose retest, confirmation (AID 435004); assay type: functional;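 also: stress induced by proteasome inhibitor MG132 added 30 min after compound; luciferase reporter driven by HSF1 response element in NIH3T3 cells; actives raise luminescence as potentiators of the MG132 stress response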
T2 sequence (P38532 whole entry): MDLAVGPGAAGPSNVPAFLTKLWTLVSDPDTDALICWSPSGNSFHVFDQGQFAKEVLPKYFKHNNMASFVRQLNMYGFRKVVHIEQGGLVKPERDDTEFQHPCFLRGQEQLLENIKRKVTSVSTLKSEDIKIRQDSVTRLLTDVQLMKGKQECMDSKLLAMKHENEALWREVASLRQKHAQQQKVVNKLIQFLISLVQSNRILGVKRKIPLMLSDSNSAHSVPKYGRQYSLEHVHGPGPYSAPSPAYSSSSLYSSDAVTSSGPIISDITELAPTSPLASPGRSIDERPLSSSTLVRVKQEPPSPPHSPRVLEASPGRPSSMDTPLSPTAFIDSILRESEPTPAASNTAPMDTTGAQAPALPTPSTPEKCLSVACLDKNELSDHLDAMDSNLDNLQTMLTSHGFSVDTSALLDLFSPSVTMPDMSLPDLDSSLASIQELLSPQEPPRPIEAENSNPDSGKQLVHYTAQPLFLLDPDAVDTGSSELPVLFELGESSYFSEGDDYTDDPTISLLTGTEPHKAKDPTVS

[6] = Luminescence Cell-Based Dose Confirmation HTS to Identify Inhibitors of Platelet Dense Granule Release. [Related pubchem assays: 1663 (Primary HTS), 1678 (Summary of Project)]; assay type: functional
Vero [7] = assay: cells; assay type: functional; details: Chlorocebus sabaeus
[8] = biological target: T3, Sphingosine 1-phosphate receptor 4 (Homo sapiens, UniProt O95977); assay: Late stage fluorescence dose response cell-based screening assay for antagonists of the Sphingosine 1-Phosphate Receptor 4 (S1P4). [Related pubchem assays: 1524 (Confirmation screen (S1P4 antagonists).), 1510 (Primary screen (S1P4 antagonists).), 1853 (Summary AID (S1P4 antagonists).), 1692 (Dose response screen (S1P4 antagonists).)]; assay type: functional
T3 sequence (O95977 whole entry): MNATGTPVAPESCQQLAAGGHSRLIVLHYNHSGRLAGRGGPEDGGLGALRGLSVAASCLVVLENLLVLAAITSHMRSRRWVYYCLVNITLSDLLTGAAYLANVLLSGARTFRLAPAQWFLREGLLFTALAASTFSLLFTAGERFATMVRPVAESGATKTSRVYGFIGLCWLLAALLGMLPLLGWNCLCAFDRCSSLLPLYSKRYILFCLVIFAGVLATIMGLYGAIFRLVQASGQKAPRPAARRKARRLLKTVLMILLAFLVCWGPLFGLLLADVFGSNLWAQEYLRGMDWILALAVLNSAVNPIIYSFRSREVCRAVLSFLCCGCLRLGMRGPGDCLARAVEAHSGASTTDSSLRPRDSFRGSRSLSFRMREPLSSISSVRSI

[9] = biological target: Sphingosine 1-phosphate receptor 1 (Homo sapiens, UniProt P21453); assay type: functional;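 also: Tango beta-arrestin reporter U2OS cells stimulated with S1P near its EC80; inhibitor potency meaning antagonism of receptor activation by the natural agonist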
[10] = Luminescent dose response cell-based high throughput screening assay for inhibitors of the Janus kinase 2 mutant JAK2V617F. [Related pubchem assays: 1446 (Primary screen.), 1521 (Confirmation assay.), 1486 (Counter screen.)]; assay type: functional
[11] = biological target: Luciferin 4-monooxygenase (Photinus pyralis, UniProt P08659); assay: inhibition of purified Photinus pyralis luciferase – biochemical, luminescence, dose response (AID 1891)
[12] = biological target: T3, Sphingosine 1-phosphate receptor 4; assay: Fluorescence dose response cell-based high throughput screening assay for antagonists of the Sphingosine 1-Phosphate Receptor 4 (S1P4). [Related pubchem assays: 1524 (Confirmation in triplicates.), 1510 (Primary screen.)]; assay type: functional
Cytochrome P450 2C19 = Cytochrome P450 2C19 (Homo sapiens, UniProt P33261); assay: Cytochrome panel assay with activity outcomes. Panel member name: p450-cyp2c19 Compounds with AC50 equal or less than 10 uM are considered active; assay type: functional; details: read-out: AC50
Danio rerio = assay: In Vivo Angiogenesis Dose-Response Confirmation. [Related pubchem assays: 732 (Assay preceding this confirmatory assay.)]; assay type: functional, organism-based
Cytochrome P450 2C9 [13] = biological target: T4, Cytochrome P450 2C9 (Homo sapiens, UniProt P11712); details: Potency
Cytochrome P450 2C9 [14] = biological target: T4, Cytochrome P450 2C9
Bcl-2-related protein A1 [15] = biological target: T1, Bcl-2-related protein A1; assay: displacement of Bid BH3 peptide from Bfl-1 – biochemical, fluorescence polarization, FITC-Bid, mouse, primary screen (AID 432)
Vero [16] = assay: Vero cell viability after compound exposure – synthesized analogs, set II, cytotoxicity control for West Nile virus antiviral project, SAR follow-up (AID 2402); assay type: functional; details: Chlorocebus sabaeus
[17] = biological target: Voltage-gated inwardly rectifying potassium channel KCNH2 (Homo sapiens, UniProt Q12809); assay: concentration-dependent hERG rescue from blockers – cell-based, thallium flux, dose response (AID 2121); assay type: ADME
Protein RecA = biological target: T5, Protein RecA (Mycobacterium tuberculosis, UniProt P9WHJ3); assay: Fluorescence Cell-Free Homogeneous Dose Retest to Identify Inhibitors of RecA-Intein Splicing Activity. [Related pubchem assays (depositor defined):AID2097, AID2223, AID489010, AID492950]; assay type: functional
T5 sequence (P9WHJ3 whole entry): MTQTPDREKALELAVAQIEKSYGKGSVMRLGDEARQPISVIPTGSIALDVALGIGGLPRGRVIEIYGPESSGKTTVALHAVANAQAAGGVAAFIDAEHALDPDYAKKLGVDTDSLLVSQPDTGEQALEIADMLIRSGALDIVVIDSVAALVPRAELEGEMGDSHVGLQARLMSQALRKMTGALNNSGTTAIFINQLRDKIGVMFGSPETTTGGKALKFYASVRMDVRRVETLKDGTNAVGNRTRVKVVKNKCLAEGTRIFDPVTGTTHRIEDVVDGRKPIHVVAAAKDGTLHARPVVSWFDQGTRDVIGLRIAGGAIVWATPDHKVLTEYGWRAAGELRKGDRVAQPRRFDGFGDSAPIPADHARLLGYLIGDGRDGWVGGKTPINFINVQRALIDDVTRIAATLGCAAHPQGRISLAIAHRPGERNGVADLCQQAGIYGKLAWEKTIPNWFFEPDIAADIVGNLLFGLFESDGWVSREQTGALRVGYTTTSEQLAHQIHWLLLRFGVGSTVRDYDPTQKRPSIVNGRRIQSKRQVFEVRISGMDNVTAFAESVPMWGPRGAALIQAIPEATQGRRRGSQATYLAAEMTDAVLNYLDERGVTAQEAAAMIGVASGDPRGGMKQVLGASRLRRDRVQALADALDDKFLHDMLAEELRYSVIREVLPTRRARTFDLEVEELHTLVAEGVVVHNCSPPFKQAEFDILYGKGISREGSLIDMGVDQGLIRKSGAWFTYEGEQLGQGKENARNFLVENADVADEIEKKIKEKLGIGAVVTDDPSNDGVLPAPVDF

14-3-3 protein gamma = 14-3-3 protein gamma (Homo sapiens, UniProt P61981); assay: modulators of 14-3-3 gamma client binding – dose response (AID 711); assay type: functional
[18] = biological target: T6, Replicative DNA helicase DnaB (Mycobacterium tuberculosis, UniProt P9WMR3); assay: DnaB intein splicing inhibitors, dose response, biochemical, cell-free fluorescence (AID 449749); assay type: functional
T6 sequence (P9WMR3 whole entry): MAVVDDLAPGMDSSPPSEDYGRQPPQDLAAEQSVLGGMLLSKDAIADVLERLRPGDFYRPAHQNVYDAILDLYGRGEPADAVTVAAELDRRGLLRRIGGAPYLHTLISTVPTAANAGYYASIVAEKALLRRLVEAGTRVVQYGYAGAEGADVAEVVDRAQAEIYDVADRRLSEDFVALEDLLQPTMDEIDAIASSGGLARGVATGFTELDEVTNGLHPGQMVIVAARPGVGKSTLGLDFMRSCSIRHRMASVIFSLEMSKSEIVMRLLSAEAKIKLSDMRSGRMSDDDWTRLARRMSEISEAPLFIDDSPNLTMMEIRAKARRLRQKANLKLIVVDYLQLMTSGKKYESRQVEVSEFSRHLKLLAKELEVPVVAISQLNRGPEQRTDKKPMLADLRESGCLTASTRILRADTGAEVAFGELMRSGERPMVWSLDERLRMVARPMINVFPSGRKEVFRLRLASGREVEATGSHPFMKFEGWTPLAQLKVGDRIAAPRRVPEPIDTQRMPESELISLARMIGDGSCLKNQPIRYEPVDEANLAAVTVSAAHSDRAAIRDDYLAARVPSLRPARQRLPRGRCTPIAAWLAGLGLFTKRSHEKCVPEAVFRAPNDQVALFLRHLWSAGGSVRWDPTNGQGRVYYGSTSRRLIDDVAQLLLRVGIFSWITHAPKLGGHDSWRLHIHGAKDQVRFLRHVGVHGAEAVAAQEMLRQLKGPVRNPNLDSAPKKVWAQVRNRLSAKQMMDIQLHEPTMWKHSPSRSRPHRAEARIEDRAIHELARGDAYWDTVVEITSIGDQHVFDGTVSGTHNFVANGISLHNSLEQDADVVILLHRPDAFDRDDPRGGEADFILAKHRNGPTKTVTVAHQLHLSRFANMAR

[19] = luciferase reporter signal suppression in cells – H4 neuroglioma cells, luminescence, dose response (AID 1990); assay type: functional, cell-based
[20] = Luminescence Cell-Based Dose Response HTS to Identify Inhibitors of 5'UTR Stem-Loop Driven Prion Protein mRNA Translation in H4 Neuroglioblastoma Cells. [Related pubchem assays: 1827 (Project Summary), 1813 (Primary HTS)]; assay type: functional
Cytochrome P450 1A2 = biological target: T7, Cytochrome P450 1A2 (Homo sapiens, UniProt P05177);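 also: PubChem cytochrome P450 panel assay, CYP1A2 panel member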
T7 sequence (P05177 whole entry): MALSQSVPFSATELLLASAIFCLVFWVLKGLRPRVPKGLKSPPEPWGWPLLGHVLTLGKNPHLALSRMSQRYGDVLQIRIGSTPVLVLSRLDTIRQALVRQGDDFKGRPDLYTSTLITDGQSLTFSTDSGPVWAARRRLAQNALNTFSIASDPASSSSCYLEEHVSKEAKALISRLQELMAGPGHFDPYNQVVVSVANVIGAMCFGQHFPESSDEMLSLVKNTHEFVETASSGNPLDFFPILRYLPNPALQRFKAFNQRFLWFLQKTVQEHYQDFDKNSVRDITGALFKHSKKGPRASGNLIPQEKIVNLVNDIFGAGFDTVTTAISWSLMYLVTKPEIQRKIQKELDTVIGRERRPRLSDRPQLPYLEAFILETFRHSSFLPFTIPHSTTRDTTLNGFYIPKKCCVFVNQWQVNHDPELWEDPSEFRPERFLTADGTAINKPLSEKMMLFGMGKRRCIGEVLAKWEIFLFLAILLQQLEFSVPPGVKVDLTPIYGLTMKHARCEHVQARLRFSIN

Vero [21] = assay: cells; assay type: functional, cell-based; details: Chlorocebus sabaeus
Vero [22] = assay: mammalian cell viability reduction – secondary assay, cytotoxicity control for West Nile virus antiviral project, dose response (AID 1650); assay type: functional; details: Chlorocebus sabaeus
[23] = alpha-synuclein stem-loop luciferase translation blockers – H4 neuroglioma cells, luminescence, confirmation (AID 1988); assay type: functional, cell-based
[24] = Trypanosoma cruzi growth suppression in host cells – NIH3T3 host cells, beta-gal luminescence, confirmation (AID 2044); assay type: functional, cell-based;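 also: intracellular parasites grown in NIH/3T3 mouse fibroblasts as host cells; luminescent beta-galactosidase reporter signal from transgenic T. cruzi replicating inside host cells; inhibitors lower the luminescence signal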
[25] = NIH3T3 cell viability loss – ATP luminescence, mouse fibroblasts, counter-screen, dose response (AID 2010); assay type: functional, cell-based;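 also: cells exposed to compound for about 90 hours before reading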

T4 sequence (P11712 whole entry): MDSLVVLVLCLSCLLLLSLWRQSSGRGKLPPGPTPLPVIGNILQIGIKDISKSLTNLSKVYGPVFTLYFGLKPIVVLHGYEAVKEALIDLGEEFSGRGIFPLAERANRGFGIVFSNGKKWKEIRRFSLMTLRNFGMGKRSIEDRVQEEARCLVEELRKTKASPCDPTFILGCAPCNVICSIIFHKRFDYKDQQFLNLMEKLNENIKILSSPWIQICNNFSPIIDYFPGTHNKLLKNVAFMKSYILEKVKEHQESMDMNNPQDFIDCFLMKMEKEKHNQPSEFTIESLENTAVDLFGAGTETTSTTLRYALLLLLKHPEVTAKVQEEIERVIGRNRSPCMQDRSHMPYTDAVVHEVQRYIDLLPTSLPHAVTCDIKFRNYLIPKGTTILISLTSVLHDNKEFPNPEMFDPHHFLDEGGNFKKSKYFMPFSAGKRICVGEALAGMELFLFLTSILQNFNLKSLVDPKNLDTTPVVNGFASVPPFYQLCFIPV
Sequence of Glyceraldehyde-3-phosphate dehydrogenase (P04406 whole entry): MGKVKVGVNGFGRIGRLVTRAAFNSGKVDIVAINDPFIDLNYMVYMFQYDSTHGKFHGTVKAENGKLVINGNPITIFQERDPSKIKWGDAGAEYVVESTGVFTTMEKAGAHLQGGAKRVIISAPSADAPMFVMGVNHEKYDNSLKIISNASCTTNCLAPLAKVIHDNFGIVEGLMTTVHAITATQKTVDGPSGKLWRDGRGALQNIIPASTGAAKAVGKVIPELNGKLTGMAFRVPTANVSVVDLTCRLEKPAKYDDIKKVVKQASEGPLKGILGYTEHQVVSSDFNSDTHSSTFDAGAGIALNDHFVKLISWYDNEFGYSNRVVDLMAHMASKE
Sequence of Cytochrome P450 2C19 (P33261 whole entry): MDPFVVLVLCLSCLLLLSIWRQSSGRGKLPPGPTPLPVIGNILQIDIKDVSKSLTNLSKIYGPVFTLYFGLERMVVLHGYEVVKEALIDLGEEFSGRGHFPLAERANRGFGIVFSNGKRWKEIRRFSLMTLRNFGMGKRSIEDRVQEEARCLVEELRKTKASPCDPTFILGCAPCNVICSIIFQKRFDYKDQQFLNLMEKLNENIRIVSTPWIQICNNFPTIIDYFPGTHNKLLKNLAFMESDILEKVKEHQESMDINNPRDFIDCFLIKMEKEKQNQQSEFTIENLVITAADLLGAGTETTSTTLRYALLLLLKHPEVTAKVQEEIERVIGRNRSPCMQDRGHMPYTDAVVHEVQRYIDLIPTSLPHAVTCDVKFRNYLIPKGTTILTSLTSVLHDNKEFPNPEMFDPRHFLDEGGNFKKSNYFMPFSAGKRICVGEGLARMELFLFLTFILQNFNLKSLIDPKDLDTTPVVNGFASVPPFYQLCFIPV
Sequence of Voltage-gated inwardly rectifying potassium channel KCNH2 (Q12809 whole entry): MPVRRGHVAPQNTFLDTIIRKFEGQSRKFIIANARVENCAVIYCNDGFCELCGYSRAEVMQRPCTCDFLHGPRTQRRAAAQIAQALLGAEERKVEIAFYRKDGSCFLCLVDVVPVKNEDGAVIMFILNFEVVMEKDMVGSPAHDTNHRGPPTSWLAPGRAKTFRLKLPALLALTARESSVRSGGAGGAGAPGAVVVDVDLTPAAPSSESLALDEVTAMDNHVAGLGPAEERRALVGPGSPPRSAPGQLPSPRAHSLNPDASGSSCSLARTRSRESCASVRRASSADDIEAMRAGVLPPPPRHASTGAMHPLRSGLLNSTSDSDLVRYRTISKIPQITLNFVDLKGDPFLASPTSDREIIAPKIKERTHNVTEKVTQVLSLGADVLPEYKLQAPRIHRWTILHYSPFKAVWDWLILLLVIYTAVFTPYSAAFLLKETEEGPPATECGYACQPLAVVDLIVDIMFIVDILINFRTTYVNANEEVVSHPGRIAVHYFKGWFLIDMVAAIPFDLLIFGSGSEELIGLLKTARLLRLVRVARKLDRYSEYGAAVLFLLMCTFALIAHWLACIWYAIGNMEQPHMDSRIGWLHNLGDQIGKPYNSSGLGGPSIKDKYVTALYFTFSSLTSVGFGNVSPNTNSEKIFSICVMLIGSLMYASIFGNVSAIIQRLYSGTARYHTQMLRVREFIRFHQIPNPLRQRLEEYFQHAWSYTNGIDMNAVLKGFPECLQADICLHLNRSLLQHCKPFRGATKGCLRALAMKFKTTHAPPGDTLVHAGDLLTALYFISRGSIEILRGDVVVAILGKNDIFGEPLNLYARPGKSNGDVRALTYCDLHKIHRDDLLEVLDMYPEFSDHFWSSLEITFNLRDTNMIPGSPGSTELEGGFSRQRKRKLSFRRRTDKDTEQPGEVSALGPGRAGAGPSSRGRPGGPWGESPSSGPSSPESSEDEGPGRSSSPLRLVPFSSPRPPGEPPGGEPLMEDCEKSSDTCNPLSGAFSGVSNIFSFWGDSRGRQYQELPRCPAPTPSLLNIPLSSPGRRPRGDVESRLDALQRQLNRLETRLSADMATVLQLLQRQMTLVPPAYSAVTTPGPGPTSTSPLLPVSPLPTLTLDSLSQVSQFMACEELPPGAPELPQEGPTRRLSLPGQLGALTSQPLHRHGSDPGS
Sequence of 14-3-3 protein gamma (P61981 whole entry): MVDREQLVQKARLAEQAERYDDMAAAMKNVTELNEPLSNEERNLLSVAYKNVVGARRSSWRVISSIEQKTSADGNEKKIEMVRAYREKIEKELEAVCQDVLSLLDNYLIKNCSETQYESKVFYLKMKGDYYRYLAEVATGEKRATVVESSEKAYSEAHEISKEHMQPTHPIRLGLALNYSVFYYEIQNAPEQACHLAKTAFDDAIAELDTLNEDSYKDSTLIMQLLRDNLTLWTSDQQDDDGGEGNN
Sequence of Luciferin 4-monooxygenase (P08659 whole entry): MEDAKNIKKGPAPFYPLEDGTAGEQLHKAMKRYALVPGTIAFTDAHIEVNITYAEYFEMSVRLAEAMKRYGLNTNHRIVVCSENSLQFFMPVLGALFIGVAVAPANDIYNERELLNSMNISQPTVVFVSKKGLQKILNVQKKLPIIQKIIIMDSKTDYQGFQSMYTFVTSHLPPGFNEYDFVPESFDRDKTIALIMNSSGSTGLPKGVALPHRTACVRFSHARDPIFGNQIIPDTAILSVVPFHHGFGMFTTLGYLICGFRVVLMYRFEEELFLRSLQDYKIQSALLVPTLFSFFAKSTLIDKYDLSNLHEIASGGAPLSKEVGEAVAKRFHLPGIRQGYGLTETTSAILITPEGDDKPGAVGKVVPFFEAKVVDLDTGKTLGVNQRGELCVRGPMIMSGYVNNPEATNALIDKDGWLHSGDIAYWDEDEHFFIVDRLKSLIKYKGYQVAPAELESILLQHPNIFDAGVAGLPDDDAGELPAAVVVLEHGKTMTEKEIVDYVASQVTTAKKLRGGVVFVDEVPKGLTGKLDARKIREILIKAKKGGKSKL
Sequence of Sphingosine 1-phosphate receptor 1 (P21453 whole entry): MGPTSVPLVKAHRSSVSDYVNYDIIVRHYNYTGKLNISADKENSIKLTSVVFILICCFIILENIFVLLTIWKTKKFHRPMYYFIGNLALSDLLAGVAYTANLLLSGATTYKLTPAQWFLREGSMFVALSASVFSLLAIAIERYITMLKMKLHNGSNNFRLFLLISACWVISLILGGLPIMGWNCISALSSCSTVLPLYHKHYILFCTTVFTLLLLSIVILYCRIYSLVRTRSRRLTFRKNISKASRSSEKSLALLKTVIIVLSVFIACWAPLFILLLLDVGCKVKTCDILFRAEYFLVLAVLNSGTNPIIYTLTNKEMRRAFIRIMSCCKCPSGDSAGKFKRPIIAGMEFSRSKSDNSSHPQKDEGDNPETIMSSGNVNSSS

SMILES: CS(=O)(=O)c1nc(-c2ccc3ccccc3c2)cc(C(F)(F)F)n1
- IC50 [1]: > 100 µM (not active)
- IC50 (Bcl-2-related protein A1 [2]): > 100 µM (not active)
- IC50 (Bcl-2-related protein A1 [3]): > 100 µM (not active)

SMILES: O=C(C=C=Nc1ccccc1)C(=O)N=C=Cc1ccccc1
- CC50 [4]: 16.6 µM (active)
- EC50 [5]: 5.61 µM (inconclusive)
- EC50 [6]: 47 µM (active)
- CC50 (Vero [7]): 18.9 µM (active)
- IC50 [8]: 4.55 µM (not active)
- IC50 [9]: > 49.8 µM (not active)
- IC50 [10]: 1.91 µM (active)
- EC50 [11]: > 112 µM (not active)
- IC50 [12]: 0.972 µM (active)

SMILES: O=Nc1c(-c2c(O)[nH]c3ccccc23)[nH]c2ccccc12 [INDIRUBIN-3-MONOXIME]
- AC50 (Cytochrome P450 2C19): 39.8 µM (inconclusive)
- IC50 (Danio rerio): 0.31 µM (active)
- AC50 (Cytochrome P450 2C9 [13]): 12.6 µM (inconclusive)
- AC50 (Cytochrome P450 2C9 [14]): 39.8 µM (inconclusive)

SMILES: COC(=O)Cn1c2c(c3cc(C)ccc31)CCCC2
- IC50 (Bcl-2-related protein A1 [3]): > 100 µM (not active)
- IC50 (Bcl-2-related protein A1 [15]): > 100 µM (not active)

SMILES: OC1c2c(F)cccc2N=C2CCCCCN21 (configuration not stated)
- CC50 (Vero [16]): > 200 µM (active)

SMILES: C/C(Nc1cccc(F)c1)=C(/C#N)C(N)=O
- EC50 [17]: 0.88 µM (active)

SMILES: NC(=O)c1c(-c2cccs2)csc1N
- EC50 (Protein RecA): 1.02 µM (active)
- IC50 (14-3-3 protein gamma): > 50 µM (not active)
- AC50 [18]: > 380 µM (inactive)

SMILES: COc1c(C)c2c(c(O)c1C/C=C(\C)CCC(=O)O)C(=O)OC2 [MYCOPHENOLIC ACID]
- EC50 [19]: 10.2 µM (active)
- EC50 [20]: 0.116 µM (active)
- CC50 (Vero [7]): 9.68 µM (active)
- AC50 (Cytochrome P450 1A2): 15.8 µM (inconclusive)
- IC50 (Vero [21]): < 0.05 µM (active)
- CC50 (Vero [22]): 4.61 µM (active)
- EC50 [23]: 8.2 µM (active)
- EC50 [24]: 1.64 µM (active)
- EC50 [25]: 10.9 µM (active)
